Key:
U251 glioma cells = test: Clonogenic survival assay, U251 cells; type: cell-based, human
Method: (§1) Clonogenic survival assays were performed as described by Koumenis, et al., 2002, (Mol. Cell Biol. 22:7405-16), which reference is incorporated herein in its entirety. U251, HT-29, or A549 cells were plated at different densities in triplicate, treated with NS-123 or DMSO (alone) and irradiated 4, 8, or 12 hours later with a range of doses using ^137Cs γ-rays at a dose rate of ˜4 Gy/minute (min). One hour after irradiation, the medium was replaced with fresh medium without NS-123 or DMSO. The cells were fixed 7-14 days after IR and stained with crystal violet. Colonies greater than 50 cells were then counted and normalized against the non-irradiated controls for each treatment. […] NHA cells were plated in 24-well plates in quadruplicate at equal density, treated with equal volumes of NS-123 or DMSO (alone) and irradiated as described above. One hour after irradiation, the medium was replaced with fresh ABM. Five days later, the MTS assay was used to evaluate cell survival as above.
The effects of μM doses of NS-123 on clonogenic survival of U251 cells were first determined without ionizing radiation (IR). […] Treatment with a 5 μM dose for 12 hours caused a modest (30%), but statistically significant decrease in survival.
Next, the dose-dependent radiosensitizing effects of NS-123 (2.5 μM and 5.0 μM concentration) in U251 cells was determined (FIG. 4A). […] Therefore, NS-123 can act as a true radiosensitizer at low μM concentrations. Corresponding Dose Enhancement Ratios (DER) at 0.1 survival were: 1.3 (2.5 μM NS-123) and 2.0 (5.0 μM NS-123). The time-dependent radiosensitizing effects of 5.0 μM NS-123 in U251 cells was then investigated. […] Corresponding DER at 0.1 survival were: 1.2 (4 hour preincubation with NS-123), 1.4 (8 hour) and 1.9 (12 hour).

[1] = test system: HT-29 colorectal cancer cells; test: Clonogenic survival assay, HT-29 cells; type: cell-based, human
Method: In both cases, cells were pretreated with the compounds or DMSO vehicle control for 4 hours prior to treatment with ionizing radiation at the indicated doses.

[2] = test system: A549 non-small cell lung cancer cells; test: Clonogenic survival assay, A549 cells; type: cell-based, human; settings: A549, 5 μM for 12 hours prior to IR
Method: as §1
To exclude the possibility that the radiosensitizing effect of NS-123 was specific to a single cell line, the radiosensitizing effect of NS-123 was tested on additional cell lines of different tissue origin. Clonogenic survival assays were performed. […]

[3] = test system: U251 cells transplanted into ZF embryos; test: U251 xenograft ZF model (U251-RFP fluorescence); type: in vivo, Danio rerio
Method: ZF were raised in accordance with previously established protocols (McAleer, et al., 2005, J. Radiat. Oncol. Biol. Phys. 61:10-3) at the University of Pennsylvania School of Medicine. Embryos were maintained at 30° C. after transplantation procedures. The age of embryos is indicated as the hours post-fertilization (hpf) and days post-fertilization (dpf) for all experimental data shown. Embryos were either irradiated with 10 Gy or sham-irradiation as previously described (McAleer, et al., 2005, J. Radiat. Oncol. Biol. Phys. 61:10-3) immediately after photography at 24 hpf. Selected embryos were incubated with NS-123 at a concentration of 30 μM for 14 hours before either irradiation or sham-irradiation.
U251 cells were stably transfected with a RFP construct (pDsRed2-C 1; Clontech, Palo Alto, Calif.). Using a Nanoject II microinjector (Drummond Scientific, Broomall, Pa.) 1-100 cells were transplanted into each ZF embryo still in the chorion, from the high stage of their development (approximately 3.5 hpf) to the oblong-sphere stage (approximately 4.5 hpf). The transplantation site was localized either to the blastodisc approximately halfway between the margin and the animal pole or the center of the embryonic yolk sac. Morphological analysis was performed as previously described (Geiger, et al., 2006, Cancer Res. 66:8172-81). Transplanted embryos were examined under a 100× PlanNeofluor objective mounted on a Nikon TE-200 epifluorescence microscope. Images of embryos bearing RFP-positive cells were captured with a Hammamatsu CCD camera controlled with IP LabSpectrum v2.0.1 software (Scanalytics, Inc., Rockville, Md.). Image analysis and pseudocoloring was performed with Kodak Molecular Imaging software v. 4.0.5 (Kodak, Rochester, N.Y.). […]
Human cancer cells can be transplanted into ZF embryos through microinjection (Lee et al., 2005, Dev. Dyn. […]:1560-1570; Haldi et al., 2006, Angiogenesis 9:139-151; Mizgireuv et al., 2006, Cancer Res. 66:3120-3125). […] The embryos were subsequently examined for fluorescence on sequential days following irradiation.

CCC(=O)c1ccc(Br)c([N+](=O)[O-])c1 [NS-123, 4′-bromo-3′-nitropropiophenone]
clonogenic survival without IR (U251 glioma cells; U251, 2.5 μM for 12 hours, no IR): did not cause any significant decrease in survival | Dose Enhancement Ratio (DER) at 0.1 survival (U251 glioma cells; U251, 2.5 μM, 12 hours before IR): 1.3 | radiosensitization (U251 glioma cells; U251, 2.5 μM, IR dose of 2 Gy): Radiosensitization was evident | decrease in clonogenic survival without IR (U251 glioma cells; U251, 5 μM for 12 hours, no IR): 30% | Dose Enhancement Ratio (DER) at 0.1 survival (U251 glioma cells; U251, 5.0 μM, 4 hour preincubation): 1.2 | Dose Enhancement Ratio (DER) at 0.1 survival (U251 glioma cells; U251, 5.0 μM, 8 hour preincubation): 1.4 | Dose Enhancement Ratio (DER) at 0.1 survival (U251 glioma cells; U251, 5.0 μM, 12 hour preincubation (time-response, FIG. 4B)): 1.9 | Dose Enhancement Ratio (DER) at 0.1 survival (U251 glioma cells; U251, 5.0 μM, 12 hours before IR (dose-response, FIG. 4A)): 2.0 | loss of viability without IR, time-response (U251 glioma cells; U251, 5 μM, various times, no IR): did not induce any significant loss of viability unless it was administered for 12 hours | radiosensitization, high-density plated cells (U251 glioma cells; U251 plated at high density, 30 μM 4 hour versus 5 μM 12 hour on low-density cells (data not shown)): comparable radiosensitization | DER at 0.5 survival ([1]; HT-29, 5 μM for 12 hours prior to IR): 3.0 | DER at 0.1 survival ([1]; HT-29, pretreatment with NS-123): 3.0 | DER at 0.1 survival [2]: 1.4 | surviving U251 cells, irradiated in the presence of drug ([3]; NS-123 + 10 Gy IR, 5 dpf): markedly fewer cells | relative fluorescence versus irradiated-only control ([3]; NS-123 + IR, 10 embryos/condition/experiment): faster decrease in luminescence | size of U251 xenografts, drug alone ([3]; NS-123 alone, 3 or 5 dpf): did not have any significant effect on the size

From patent US8541476B2, “Compounds for treatment of malignant tumors” (The Trustees of the University of Pennsylvania, priority 2007, dated 2013)
